Results reported in the NIST ThermoML archive (doi:10.1021/je700338t).

Key:
[1] = 298.15 K, 101.33 kPa, Liquid
[2] = refractive index (Na D-line) (dimensionless); details: 298.15 K, 101.33 kPa, Liquid
[3] = xn = mol fraction of the nth substance listed; details: 298.15 K, 101 kPa, Liquid; for mass density: Vibrating tube method
[4] = refractive index (Na D-line) (dimensionless); xn = mol fraction of the nth substance listed; details: 298.15 K, 101 kPa, Liquid

CO [methanol]
[1]
Details | mass density [kg/m3] | viscosity [mPa·s]
– | 786.654 | 0.54

Details | refractive index | speed of sound [m/s]
[1], Sing-around technique in a fixed-path interferometer | – | 1102.9
[2], Standard Abbe refractometry | 1.3269 | –

CCCCn1cc[n+](C)c1.F[P-](F)(F)(F)(F)F [1-butyl-3-methylimidazolium hexafluorophosphate] + CO
Details | refractive index, [4] | viscosity, [3] [mPa·s]
x1 = 0.0503 | 1.348 | 0.913
x1 = 0.0993 | 1.3636 | 1.483
x1 = 0.1517 | 1.371 | 2.331
x1 = 0.1969 | 1.3768 | 3.059
x1 = 0.3024 | 1.3872 | 6.057
x1 = 0.3531 | 1.3892 | 8.072
x1 = 0.4106 | 1.3941 | 11.03
x1 = 0.451 | 1.3961 | 13.52
x1 = 0.502 | 1.3986 | 17.29
x1 = 0.6015 | 1.4015 | 27.41
x1 = 0.7082 | 1.4045 | 45.95
x1 = 0.7989 | 1.4066 | 66.79
x1 = 0.8889 | 1.4078 | 107.94

CCCCn1cc[n+](C)c1.F[P-](F)(F)(F)(F)F [1-butyl-3-methylimidazolium hexafluorophosphate] + C1CCOC1
Details | mass density, [3] [kg/m3] | refractive index, [4] | speed of sound, [3] [m/s] | viscosity, [3] [mPa·s]
x1 = 0.0199 | 911.565 | – | 1279.2 | –
x1 = 0.0376 | 936.57 | – | 1279.9 | –
x1 = 0.0502 | – | 1.4084 | – | 0.75
x1 = 0.0737 | 979.097 | – | 1287.9 | –
x1 = 0.0967 | – | 1.4117 | – | 1.14
x1 = 0.15 | 1055.63 | – | 1312.6 | –
x1 = 0.1524 | – | 1.4125 | – | 1.732
x1 = 0.1999 | – | 1.4126 | – | 2.476
x1 = 0.2003 | 1095.84 | – | 1329.2 | –
x1 = 0.2486 | 1129.41 | – | 1343.7 | –
x1 = 0.2969 | – | 1.413 | – | 4.937
x1 = 0.3004 | 1159.97 | – | 1357.3 | –
x1 = 0.3484 | – | 1.4128 | – | 6.979
x1 = 0.3491 | 1185.7 | – | 1368.6 | –
x1 = 0.3994 | – | 1.4127 | – | 10.06
x1 = 0.4484 | – | 1.4126 | – | 14.54
x1 = 0.4634 | 1235.91 | – | 1390.5 | –
x1 = 0.5028 | – | 1.4117 | – | 18.5
x1 = 0.5808 | 1276.69 | – | 1406.9 | –
x1 = 0.6047 | – | 1.4115 | – | 33.63
x1 = 0.6941 | 1306.09 | – | 1418.7 | –
x1 = 0.7016 | – | 1.411 | – | 52.84
x1 = 0.7996 | 1329.25 | – | 1427.8 | –
x1 = 0.805 | – | 1.4105 | – | 90.82
x1 = 0.8991 | 1348.14 | – | 1435.7 | –
x1 = 0.9595 | – | 1.4095 | – | 186.86

CCCCn1cc[n+](C)c1.F[P-](F)(F)(F)(F)F [1-butyl-3-methylimidazolium hexafluorophosphate] + CC#N
Details | refractive index, [4] | viscosity, [3] [mPa·s]
x1 = 0.0496 | 1.3575 | 0.556
x1 = 0.1016 | 1.3687 | 0.864
x1 = 0.147 | 1.3754 | 1.187
x1 = 0.2022 | 1.3819 | 1.866
x1 = 0.2995 | 1.3902 | 3.792
x1 = 0.3524 | 1.3934 | 5.308
x1 = 0.4036 | 1.3959 | 7.674
x1 = 0.4337 | 1.3974 | 9.153
x1 = 0.4955 | 1.3998 | 14.44
x1 = 0.5892 | 1.4024 | 23.84
x1 = 0.6857 | 1.4048 | 40.69
x1 = 0.8046 | 1.4068 | 81.53
x1 = 0.8055 | 1.4069 | 86.27
x1 = 0.9176 | 1.4084 | 154.06

CCCCn1cc[n+](C)c1.F[P-](F)(F)(F)(F)F [1-butyl-3-methylimidazolium hexafluorophosphate] + C[S+](C)[O-]
Details | mass density, [3] [kg/m3] | refractive index, [4] | speed of sound, [3] [m/s] | viscosity, [3] [mPa·s]
x1 = 0.0011 | 1096.21 | – | 1484.8 | –
x1 = 0.0024 | 1097.26 | – | 1484.9 | –
x1 = 0.0187 | 1109.73 | – | 1483.5 | –
x1 = 0.0321 | 1119.44 | – | 1482.4 | –
x1 = 0.05 | – | 1.4676 | – | 2.749
x1 = 0.0552 | 1135.09 | – | 1480.5 | –
x1 = 0.0635 | 1140.41 | – | 1479.9 | –
x1 = 0.0996 | 1161.89 | – | 1477.3 | –
x1 = 0.0997 | – | 1.4606 | – | 3.698
x1 = 0.1477 | – | 1.4546 | – | 4.962
x1 = 0.153 | 1189.47 | – | 1473.7 | –
x1 = 0.1977 | – | 1.4491 | – | 6.489
x1 = 0.2381 | 1225.52 | – | 1469.4 | –
x1 = 0.2995 | – | 1.4396 | – | 11.95
x1 = 0.3372 | 1258.28 | – | 1464.5 | –
x1 = 0.3524 | – | 1.4361 | – | 16
x1 = 0.3997 | – | 1.4331 | – | 21.17
x1 = 0.4328 | – | 1.4309 | – | 24.61
x1 = 0.5018 | – | 1.4278 | – | 36.98
x1 = 0.5586 | 1309.44 | – | 1454.9 | –
x1 = 0.598 | – | 1.4226 | – | 56.31
x1 = 0.7043 | – | 1.4182 | – | 83.73
x1 = 0.7791 | 1342.89 | – | 1448.2 | –
x1 = 0.7812 | – | 1.4158 | – | 117.54
x1 = 0.893 | – | 1.4125 | – | 173.32
x1 = 0.925 | 1359.3 | – | 1444.7 | –

C[S+](C)[O-] [dimethyl sulfoxide]
[1]
Details | mass density [kg/m3] | viscosity [mPa·s]
– | 1095.3 | 1.961

Details | refractive index | speed of sound [m/s]
[1], Sing-around technique in a fixed-path interferometer | – | 1485
[2], Standard Abbe refractometry | 1.4769 | –

CC#N [acetonitrile]
[1]
Details | mass density [kg/m3] | viscosity [mPa·s]
– | 776.565 | 0.339

Details | refractive index | speed of sound [m/s]
[1], Sing-around technique in a fixed-path interferometer | – | 1278.7
[2], Standard Abbe refractometry | 1.3419 | –

C1CCOC1 [tetrahydrofuran]
[1]
Details | mass density [kg/m3] | viscosity [mPa·s]
– | 882.008 | 0.449

Details | refractive index | speed of sound [m/s]
[1], Sing-around technique in a fixed-path interferometer | – | 1278.2
[2], Standard Abbe refractometry | 1.405 | –

CCCCn1cc[n+](C)c1.F[P-](F)(F)(F)(F)F [1-butyl-3-methylimidazolium hexafluorophosphate]
Details | mass density [kg/m3] | refractive index | speed of sound [m/s] | viscosity [mPa·s]
[1] | 1366.07 | – | 1443.5 | 212.1
[2] | – | 1.4095 | – | –
